Consider 4 compounds from ChEMBL document CHEMBL1151825, “Schisanwilsonenes A-C, anti-HBV Carotane sesquiterpenoids from the fruits of Schisandra wilsoniana” (J Nat Prod, 2009).

The subject of data set [1] is Hepatitis B virus. The data set is described as follows: Antiviral activity against HBV infected in human HepG2 2.2.15 cells assessed as inhibition of HBsAg secretion at 50 ug/mL after 9 days by ELISA. The format is functional. The following applies: HepG2, 216 h. On the technique in general: An ELISA detects its analyte on a solid surface through an enzyme-linked reagent.

For data set [2], the system named is Hepatitis B virus. Nature of the data set: Antiviral activity against HBV infected in human HepG2 2.2.15 cells assessed as inhibition of HBsAg secretion at 25 ug/mL after 9 days by ELISA. In kind it is functional. The note with it: HepG2, 216 h.
The subject of data set [3] is Hepatitis B virus. The data set is described as follows: Antiviral activity against HBV infected in human HepG2 2.2.15 cells assessed as inhibition of HBeAg secretion at 50 ug/mL after 9 days by ELISA. In kind it is functional. The note with it: HepG2, 216 h.
Data set [4] has as its system Hepatitis B virus. Nature of the data set: Antiviral activity against HBV infected in human HepG2 2.2.15 cells assessed as inhibition of HBeAg secretion at 25 ug/mL after 9 days by ELISA. In kind it is functional. The note with it: HepG2, 216 h.
A short description of data set [5]: Cytotoxicity of human HepG2(2.2.15) cells assessed as growth inhibition at 200 ug/mL by MTT assay. The format is cell-based. A general note: Tetrazolium assays rely on reduction of a dye to a coloured formazan, in cell work by metabolically active cells.
Data set [6] in a line: Cytotoxicity of human HepG2(2.2.15) cells assessed as growth inhibition at 100 ug/mL by MTT assay. In kind it is cell-based.
Data set [7] relates to Hepatitis B virus. Nature of the data set: Antiviral activity against HBV infected in human HepG2 2.2.15 cells assessed as inhibition of HBsAg secretion at 100 ug/mL after 9 days by ELISA. In kind it is functional. The note with it: HepG2, 216 h.
Data set [8] concerns Hepatitis B virus. The data set is described as follows: Antiviral activity against HBV infected in human HepG2 2.2.15 cells assessed as inhibition of HBeAg secretion at 100 ug/mL after 9 days by ELISA. The format is functional. The following applies: HepG2, 216 h.
The subject of data set [9] is Hepatitis B virus. Nature of the data set: Antiviral activity against HBV infected in human HepG2 2.2.15 cells assessed as inhibition of HBsAg secretion at 200 ug/mL after 9 days by ELISA. In kind it is functional. The note with it: HepG2, 216 h.
Data set [10] concerns Hepatitis B virus. The data set is described as follows: Antiviral activity against HBV infected in human HepG2 2.2.15 cells assessed as inhibition of HBeAg secretion at 200 ug/mL after 9 days by ELISA. The format is functional. The note with it: HepG2, 216 h.

Molecules are shown by their SMILES.

Usually inhibition stands for how much of the control response was suppressed. With `CC(C)(O)[C@@H]1CC[C@@]2(C)CCC(CO)=CC[C@H]12` (relative stereo) [SCHISANWILSONENE A], the inhibition at 50 µg/mL with Hepatitis B virus [1] was 76.5%; in the data set on Hepatitis B virus [3], 28.9%. The inhibition at 25 µg/mL with Hepatitis B virus [2] amounted to 27.5%; in the data set on Hepatitis B virus [4] it was 11.3%. In data set [5], the inhibition at 200 ug/mL is at least 25%. Also, the inhibition at 100 ug/mL in data set [6] was at least 25%.
Consider `CC(=O)OCC1=CC[C@@H]2[C@H](C(C)(C)O)CC[C@@]2(C)CC1` (relative stereo) [SCHISANWILSONENE B], for which the inhibition at 100 µg/mL in the data set with Hepatitis B virus [7] worked out at 58.6%; with Hepatitis B virus [8] it was 0%. The inhibition at 50 µg/mL in the data set on Hepatitis B virus [1] was found to be 20.5%; with Hepatitis B virus [3], 0%. Also, the inhibition at 25 µg/mL was determined as 5.6% with Hepatitis B virus [2] and 0% in the data set on Hepatitis B virus [4]. The inhibition at 200 ug/mL in data set [5] is at least 25%.
Turning to `CC(C)(O)[C@@H]1CC[C@@]2(C)CCC(C=O)=CC[C@H]12` (relative stereo) [SCHISANWILSONENE C], the inhibition at 200 µg/mL was 28.3% in the data set on Hepatitis B virus [9] and 8.8% with Hepatitis B virus [10]. In addition, the values for the inhibition at 100 µg/mL with Hepatitis B virus [7] and in the data set with Hepatitis B virus [8] were 11.7% and 6.1%, respectively. Also, the inhibition at 50 µg/mL amounted to 5.5% in the data set with Hepatitis B virus [1] and 1.4% in the data set with Hepatitis B virus [3]. Besides, the inhibition at 25 µg/mL with Hepatitis B virus [2] is 0%; with Hepatitis B virus [4], 1.1%.
On to `Nc1ccn([C@@H]2CS[C@H](CO)O2)c(=O)n1` [LAMIVUDINE], for which the inhibition at 200 µg/mL was found to be 28.6% in the data set with Hepatitis B virus [9] and 34.8% in the data set on Hepatitis B virus [10].
